Results reported in patent publication US4416884A, “Piperazinylbenzoheterocyclic compounds” (Otsuka Pharmaceutical Co., Ltd., priority 1978, dated 1983).
In brackets after ≈: the same amount, converted by molar mass. Read-outs that look alike come from different tables or passages of the source.

Legend:
Test in all cases: antimicrobial activity, serial dilution method on agar plate
Format in all cases: cell-based
[1] = tested on: Pseudomonas aeruginosa E-2; settings: read-out: Minimum Inhibitory Concentration
Procedure: (§1) The antimicrobial activity of the following test compounds on various test organisms listed below was determined by the serial dilution method on agar plate (Heart Infusion agar produced by Difco Co.) (see CHEMOTHERAPY 22, pp. 1126-1128 (1974)), and the minimum inhibitory concentrations (mcg/ml) obtained are shown in Table 1 below.
(§2) A sample of each test organism was prepared so that the population of the organism was 1×10^8 cells/ml (O.D. 660 mμ=0.07 to 0.16) and 1×10^6 cells/ml (which was obtained by diluting the above 1×10^8 cells/ml preparation).

Proteus rettgeri NIH 96 = settings: Providencia rettgeri, read-out: Minimum Inhibitory Concentration
Procedure: as §1, §2

[2] = tested on: Pseudomonas aeruginosa ATCC 10145
Procedure: as §1, §2

Shigella Sonnei EW 33 = settings: read-out: Minimum Inhibitory Concentration
Procedure: as §1, §2

[3] = tested on: Staphylococcus aureus FDA 209 P; settings: read-out: Minimum Inhibitory Concentration
Procedure: as §1, §2

[4] = tested on: Salmonella typhi 0-901 (NCTC 8393); settings: Salmonella enterica
Procedure: as §1, §2

[5] = tested on: Serattia marcescens IFO 12648; settings: read-out: Minimum Inhibitory Concentration
Procedure: as §1, §2

[6] = tested on: Pseudomonas aeruginosa NCTC 10490; settings: read-out: Minimum Inhibitory Concentration
Procedure: as §1, §2

Escherichia Coli NIHJ = settings: read-out: Minimum Inhibitory Concentration
Procedure: as §1, §2

[7] = tested on: Streptococcus pyogenes IID S-23; settings: read-out: Minimum Inhibitory Concentration
Procedure: as §1, §2

Klebsiella pneumoniae = tested on: Klebsiella pneumoniae
Procedure: as §1, §2

[8] = NIH96, inoculum 1 × 10^8 cells/ml
[9] = ATCC10145, inoculum 1 × 10^8 cells/ml, read-out: Minimum Inhibitory Concentration
[10] = FDA209, inoculum 1 × 10^8 cells/ml
[11] = read-out: Minimum Inhibitory Concentration, inoculum 1 × 10^8 cells/ml
[12] = NCTC10490, inoculum 1 × 10^8 cells/ml
[13] = inoculum 1 × 10^8 cells/ml, read-out: Minimum Inhibitory Concentration

| Compound | MIC ([1]; E2, inoculum 1 × 10^8 cells/ml) [µg/mL] | MIC (Proteus rettgeri NIH 96; [8]) [µg/mL] | MIC [2, 9] [µg/mL] | MIC (Shigella Sonnei EW 33; inoculum 1 × 10^8 cells/ml) [µg/mL] | MIC [3, 10] [µg/mL] | MIC [4, 11] [µg/mL] | MIC ([5]; inoculum 1 × 10^8 cells/ml) [µg/mL] | MIC [6, 12] [µg/mL] | MIC (Escherichia Coli NIHJ; inoculum 1 × 10^8 cells/ml) [µg/mL] | MIC (Klebsiella pneumoniae; [13]) [µg/mL] | other results |
| --- | --- | --- | --- | --- | --- | --- | --- | --- | --- | --- | --- |
| CC1Cc2c(Cl)ccc3c(=O)c(C(=O)O)cn1c23 (stereo not drawn) [G] | 100 (≈ 379 µM) | 0.4 (≈ 1.52 µM) | 50 (≈ 190 µM) | 1.6 (≈ 6.07 µM) | 3.1 (≈ 11.8 µM) | 0.8 (≈ 3.03 µM) | 3.1 (≈ 11.8 µM) | 25 (≈ 94.8 µM) | 0.8 (≈ 3.03 µM) | 3.1 (≈ 11.8 µM) | MIC ([1]; E2, inoculum 1 × 10^6 cells/ml): 50 µg/mL (≈ 190 µM); MIC (Proteus rettgeri NIH 96; NIH96, inoculum 1 × 10^6 cells/ml): 0.2 µg/mL (≈ 0.758 µM); MIC ([2]; ATCC10145, inoculum 1 × 10^6 cells/ml, read-out: Minimum Inhibitory Concentration): 25 µg/mL (≈ 94.8 µM); MIC (Shigella Sonnei EW 33; inoculum 1 × 10^6 cells/ml): 1.6 µg/mL (≈ 6.07 µM); MIC ([3]; FDA209, inoculum 1 × 10^6 cells/ml): 3.1 µg/mL (≈ 11.8 µM); MIC ([4]; read-out: Minimum Inhibitory Concentration, inoculum 1 × 10^6 cells/ml): 0.8 µg/mL (≈ 3.03 µM); MIC ([5]; inoculum 1 × 10^6 cells/ml): 1.6 µg/mL (≈ 6.07 µM); MIC ([6]; NCTC10490, inoculum 1 × 10^6 cells/ml): 12.5 µg/mL (≈ 47.4 µM); MIC (Escherichia Coli NIHJ; inoculum 1 × 10^6 cells/ml): 0.4 µg/mL (≈ 1.52 µM); MIC ([7]; IIDS23, inoculum 1 × 10^6 cells/ml): > 100 µg/mL; MIC ([7]; IIDS23, inoculum 1 × 10^8 cells/ml): > 100 µg/mL; MIC (Klebsiella pneumoniae; inoculum 1 × 10^6 cells/ml, read-out: Minimum Inhibitory Concentration): 1.6 µg/mL (≈ 6.07 µM) |
| CC(=O)N1CCN(c2ccc3c(=O)c(C(=O)NC(C(=O)NC4C(=O)N5C4SC(C)(C)C5C(=O)O)c4ccccc4)cn4c3c2CCC4)CC1 (stereo not drawn) [H] | 25 (≈ 36.4 µM) | 25 (≈ 36.4 µM) |  | 12.5 (≈ 18.2 µM) | 1.6 (≈ 2.33 µM) | 6.3 (≈ 9.17 µM) | 50 (≈ 72.8 µM) | 3.1 (≈ 4.51 µM) | 6.3 (≈ 9.17 µM) |  | MIC ([2]; ATCC10145, read-out: Minimum Inhibitory Concentration, inoculum 1 × 10^8 cells/ml): 12.5 µg/mL (≈ 18.2 µM); MIC (Klebsiella pneumoniae; [11]): 12.5 µg/mL (≈ 18.2 µM) |
| CC1(C)SC2C(NC(=O)C(NC(=O)c3cn4c5c(c(N6CCNCC6)ccc5c3=O)CCC4)c3ccccc3)C(=O)N2C1C(=O)O (stereo not drawn) [I] | 25 (≈ 38.8 µM) | 0.4 (≈ 0.62 µM) | 25 (≈ 38.8 µM) | 3.1 (≈ 4.81 µM) | 0.1 (≈ 0.155 µM) | 0.2 (≈ 0.31 µM) | 12.5 (≈ 19.4 µM) | 6.3 (≈ 9.77 µM) | 1.6 (≈ 2.48 µM) | 0.8 (≈ 1.24 µM) |  |
